Results on seven molecules are retold here after patent US20100249064A1, “METHODS AND COMPOSITIONS FOR TREATING DISEASES AND CONDITIONS INVOLVING HIGHER MOLECULAR WEIGHT HYALURONAN” (University of Chicago, priority 2007, published 2010).

The test system of data set [1] is ARDS. To be noted: cited from earlier work; for Outcome (clinical trials in ARDS): patients with ARDS.
Data set [2] has as its system MARCKS and NHE1. In words: LPS-induced phosphorylation of MARCKS and NHE1 (immunoprecipitation/immunoblot). Type of data set: cell-based, human. To be noted: LPS 1 μg/ml, 4 hours, HMW-HA 100 nM or Y-27632 500 nM. (In general: Immunoblotting shows a protein as a band on a membrane.)
For data set [3], the system named is c-Met, CD44v10, Tiam1, cortactin, dynamin 2 in CEM. The data set is described as follows: HGF-induced recruitment of proteins to caveolin-enriched microdomains (CEM). In kind it is cell-based, human. As for the experimental part:
Caveolin-enriched microdomain (CEM) isolation—Caveolin-enriched microdomain known as detergent-resistant membranes (DRM) or lipid rafts were isolated from HPMVEC (Singleton et al., 2006; Singleton et al., 2005). Triton X-100-insoluble materials were mixed with 0.6 ml of cold 60% Optiprep™ and then overlaid with 0.6 ml of 40%-20% Optiprep™. Gradients were centrifuged (35,000 rpm) in SW60 rotor for 12 h at 4° C. and different fractions were collected and analyzed.
Immunoprecipitation and Immunoblotting—Cellular materials from treated or untreated HPMVEC were incubated with IP buffer (50 mM HEPES (pH 7.5), 150 mM NaCl, 20 mM MgCl2, 1% Nonidet P-40 (NP-40), 0.4 mM Na3VO4, 40 mM NaF, 50 μM okadaic acid, 0.2 mM phenylmethylsulfonyl fluoride, 1:250 dilution of Calbiochem protease inhibitor mixture 3). Following immunoprecipitation with either anti-CD44 or anti-dynamin 2 IgG, the samples were subjected to SDS-PAGE in 4-15% polyacrylamide gels, transferred onto Immobilon™ membranes, and developed with specific primary and secondary antibodies. Enhanced chemiluminescence (Amersham Biosciences) was used to visualize immunoreactive bands. In some instances, standardized average grey values (S.A.G.V., processed from ImageQuant™ software (Amersham Biosciences)) were obtained for immunoreactive bands for quantification.
Determination of Complex Formation between CD44 and c-Met—Solubilized CEM proteins in IP buffer (see above) were immunoprecipitated with rat anti-CD44 antibody or anti-c-Met antibody followed by SDS-PAGE in 4-15% polyacrylamide gels and transfer onto Immobilon™ membranes (Millipore Corp., Bedford, Mass.). Nonspecific sites were blocked with 5% bovine serum albumin, and then the blots were incubated with either rat anti-CD44 antibody or mouse anti-c-Met antibody followed by incubation with horseradish peroxidase (HRP)-labeled goat anti-mouse or goat anti-rat IgG. Visualization of immunoreactive bands was achieved using enhanced chemiluminescence (Amersham Biosciences).

For data set [4], the system named is Rac1. The data set is described as follows: Rac1 activation assay, HGF. Type of data set: cell-based, human. To be noted: HGF 25 ng/ml. As for the experimental part: Rac1 Activation Assay—Rac1 activity assays were performed as described (Ren et al., 1999) in human lung EC.
In data set [5] the test system is LPS-induced murine lung vascular permeability. The data set is described as follows: LPS-induced murine lung vascular permeability, bronchioalveolar lavage (BAL) protein and cytokines. In kind it is in vivo, mouse. The procedure: Animal Preparation and Treatment—Male C57BL/6J and CD44 knockout mice (8-10 weeks, Jackson Laboratories, Bar Harbor, Me.) were anesthetized with intraperitoneal ketamine (150 mg/kg) and acetylpromazine (15 mg/kg) according to approved protocols. LPS (2.5 mg/kg) or saline (control) were instilled intratracheally and four hours later, HGF (50 μg/kg) or saline control delivered intravenously through the internal jugular vein. The animals were allowed to recover for 24 h followed by bronchioalveolar lavage protein analysis and/or lung immunohistochemistry.
Determination of Bronchioalveolar Lavage Protein Concentration—Bronchioalveolar lavage (BAL) was performed by an intratracheal injection of 1 cc of Hank's balanced salt solution followed by gentle aspiration. The recovered fluid was processed for protein concentration (BCA Protein Assay Kit; Pierce Chemical Co., Rockford, Ill.) as described (Su et al., 2004).
Animals. Male C57BL/6J mice, CD44 knockout mice, Caveolin-1 knockout mice (8-10 weeks, Jackson Laboratories, Bar Harbor, Me.) were anesthetized with intraperitoneal ketamine (150 mg/kg) and acetylpromazine (15 mg/kg) according to approved protocols. LPS (2.5 mg/kg) or saline (control) were instilled intratracheally and four hours later, HMW-HA (1.5 mg/kg) or saline control delivered intravenously through the internal jugular vein. The animals were allowed to recover for 24 hours followed by bronchioalveolar lavage protein analysis and/or lung immunohistochemistry.
Determination of protein concentration. Total protein concentration. TGF-alpha concentration. TGF-beta1 concentration. Bronchioalveolar lavage (BAL) was performed by an intratracheal injection of 1 cc of Hank's balanced salt solution followed by gentle aspiration. The recovered fluid was processed for protein concentration (BCA Protein Assay Kit; Pierce Chemical Co., Rockford, Ill.) or used to determine TNF-α and TGF-β1 concentrations using quantitative sandwich enzyme immunoassays (R & D Systems, Minneapolis, Minn.).
Animal Preparation and Treatment. Male C57BL/6J, B6129N2, CD44^−/− or caveolin-1^−/− mice (8-10 weeks, Jackson Laboratories, Bar Harbor, Me.) were anesthetized with intraperitoneal ketamine (150 mg/kg) and acetylpromazine (15 mg/kg) before exposure of the right internal jugular vein via neck incision. LPS (2.5 mg/kg) or water (control) were instilled intratracheally. Four hours later, mice receive high MW HA (1.5 mg/kg) or water control through the internal jugular vein. The animals were allowed to recover for 24 hours after LPS before bronchioalveolar lavage protein and cytokine concentration and/or lung immunohistochemistry/immunoblot analysis (Peng et al., 2004).
Determination of Bronchoavleolar Lavage Protein and Cytokine Concentration. Bronchioalveolar lavage (BAL) was performed by an intratracheal injection of 1 cc of Hank's balanced salt solution followed by gentle aspiration. The recovered fluid was processed for protein concentration (BCA Protein Assay Kit; Pierce Chemical Co., Rockford, Ill.) (Peng et. al., 2004). Cytokines (IL-6, TNFalpha) were measured using a Quantikine sandwich ELISA kit (R & D Systems).

Data set [6] addresses Hyaluronic Acid Binding Protease 2 (HABP2), human (human, UniProt Q14520 24-560, limits assumed). The data set is described as follows: anti-HABP2 immunoprecipitation of EC media, non-reducing SDS-PAGE, immunoblot with anti-HABP2 or anti-C1INH.
Data set [7] deals with T1, purified HABP2 (Homo sapiens, UniProt Q14520).
T1 construct: host or cells: human pulmonary endothelial cells (EC); secreted into the medium, immunoprecipitated with anti-HABP2 antibody
The data set is described as follows: HABP2 protease assay (QuantiCleave, succinylated casein). Type of data set: biochemical. To be noted: 100 μM purified PABD, 500 nM HMW-HA or LMW-HA. As for the experimental part:
HABP2 protease assay. Protease activity is measured using the QuantiCleave™ Protease Assay Kit (Pierce). Briefly, the immunobeads are incubated with succinylated casein for one hour followed by development with TNBSA (2,4,6-trinitrobenzene sulfonic acid) and read at 450 nm.
HABP2 protein purification and protease activity determination. Media from HABP2 overexpression vector-transfected EC (Origene) was immunoprecipitated with anti-HABP2 antibody-conjugated Sepharose beads (Sigma). The immunobeads were then extensively washed in 50 mM Borate, pH=8.5 and eluted with 1M NaCl with 0.1% NP-40 and dialyzed against a 1,000 fold excess of 50 mM Borate, pH=8.5. Protein assays were performed to quantitate total protein. The purified protein was run on SDS-PAGE and either immunoblotted with anti-HABP2 antibody (Novus Biologicals) or stained with Imperial™ protein stain (Pierce) to check for purity. Protease activity was measured using the QuantiCleave™ Protease Assay Kit (Pierce). Briefly, the immunobeads were incubated with succinylated casein for one hour followed by development with TNBSA (2,4,6-trinitrobenzene sulfonic acid) and read at 450 nm.
Determination of the role of HMW-HA/HABP2/C1INH interactions in regulating angiogenesis in vitro. Human pulmonary EC (Cambrex), grown in EBM-2 complete medium (Cambrex) at 37° C. in a humidified atmosphere of 5% CO2, 95% air, with passages 6-10 used for experimentation will be treated with or without 100 nM HMW-HA and/or 100 nM VEGF in the presence or absence of HABP2 and/or C1INH overexpression vectors (Origene), exogenous purified recombinant HABP2 polyanion binding domain and/or C1INH (Novus Biologicals) and/or siRNA (scramble, HABP2 or C1INH). For HABP2 protease activity determination, media from HABP2 overexpressing EC (see above) was immunoprecipitated with anti-HABP2 antibody-conjugated Sepharose beads (Sigma). The immunobeads were then extensively washed in 50 mM Borate, pH=8.5 and protease activity was measured using the QuantiCleave™ Protease Assay Kit (Pierce). Briefly, the immunobeads were incubated with succinylated casein for one hour followed by development with TNBSA (2,4,6-trinitrobenzene sulfonic acid) and read at 450 nm.

Entries after “also recorded” stand apart in the source; their conditions may differ.

T1 sequence (Q14520 24-560): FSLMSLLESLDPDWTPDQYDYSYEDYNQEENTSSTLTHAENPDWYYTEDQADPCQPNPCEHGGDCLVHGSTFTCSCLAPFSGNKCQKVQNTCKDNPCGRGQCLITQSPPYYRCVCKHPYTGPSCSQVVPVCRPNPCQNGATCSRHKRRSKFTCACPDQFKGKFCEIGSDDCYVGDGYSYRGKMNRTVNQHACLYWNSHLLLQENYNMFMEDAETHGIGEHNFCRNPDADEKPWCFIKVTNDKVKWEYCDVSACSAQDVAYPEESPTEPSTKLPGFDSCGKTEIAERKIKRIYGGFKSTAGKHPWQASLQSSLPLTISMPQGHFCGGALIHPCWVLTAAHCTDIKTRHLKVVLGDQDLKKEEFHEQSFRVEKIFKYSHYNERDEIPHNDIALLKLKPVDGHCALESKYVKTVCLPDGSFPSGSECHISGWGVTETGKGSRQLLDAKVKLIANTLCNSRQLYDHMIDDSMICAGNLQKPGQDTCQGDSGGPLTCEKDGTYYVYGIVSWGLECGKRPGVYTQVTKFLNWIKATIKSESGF
Hyaluronic Acid Binding Protease 2 (HABP2), human, sequence (Q14520 24-560 limits assumed): as the sequence (Q14520 24-560) above

`C[C@@H](O)CCCCn1c(=O)c2c(ncn2C)n(C)c1=O` [Lisofylline]: the “Outcome (clinical trials in ARDS)” value in data set [1] was “trials failed to show efficacy in increasing”.

As to `C[C@H]1C[C@@H]2[C@H]([C@@H](O)C[C@@]3(C)[C@H]2CC[C@]3(O)C(=O)CO)[C@@]2(C)C=CC(=O)C=C12` [Methyprednisolone], the hospital mortality result in data set [1] (administered through the fibroproliferative stage of ARDS, 62% in placebo cohort) was “hospital mortality to 12% from 62% in placebo”.

As for `C[C@@H](N)[C@H]1CC[C@H](C(=O)Nc2ccncc2)CC1` [Y-27632, reference compound], the “LPS-induced phosphorylation of MARCKS and NHE1” value in data set [2] was “inhibit LPS-induced phosphorylation of MARCKS and NHE1”.

Turning to “HGF: Recombinant human hepatocyte growth factor (HGF), Chemicon International”, in data set [3] (HGF 25 ng/ml), the “recruitment of Tiam1, cortactin and dynamin 2 to CEM” value is “increased recruitment to these caveolin-enriched plasma membrane microdomain structures”; the “recruitment of total CD44v10 into CD44s-containing CEM” value is on record as roughly 70%; the “recruitment of total c-Met into CD44s-containing CEM” value is on record as roughly 55%. Further, the “association of c-Met with CD44v10 in CEM” value in data set [3] (HGF 25 ng/ml, 5, 15 or 30 min) is given as “induce an association that is time-dependent of c-Met with CD44v10”. Further, the Rac1 activation result in data set [4] was “induced Rac1 activation”. The “protective effect on LPS-induced pulmonary hyper-permeability (BAL) in knockout mice” value in data set [5] (CD44 knockout (and, where stated, Caveolin-1 knockout) mice, same regimen) is “markedly attenuated in the CD44 knockout mouse; also recorded: significant difference (p<0.05) between the wildtype and CD44 knockout mouse HGF+LPS treatment”. Also, the “LPS-induced pulmonary hyper-permeability (BAL protein concentration)” value in data set [5] (wildtype C57BL/6J mice, LPS 2.5 mg/kg intratracheally, HMW-HA 1.5 mg/kg or HGF 50 μg/kg intravenously 4 hours after LPS, BAL at 24 hours) was “pulmonary hyper-permeability was attenuated; also recorded: significant difference (p<0.05) between LPS treatment and HGF+LPS treatment”.

Take Nitric Oxide [NO]: in data set [1] (ARDS patients), the adverse effects entry is given as “causes methemoglobinemia, increased” and the pulmonary artery pressure entry was “NO reduces pulmonary artery pressure but”. In addition, the “Outcome (clinical trials in ARDS)” value in data set [1] was “several multicenter clinical trials have shown no”.

B1: C1INH, human (other, UniProt P05155 23-500, looked up)
chain: NPNATSSSSQDPESLQDRGEGKVATTVISKMLFVEPILEVSSLPTTNSTTNSATKITANTTDEPTTQPTTEPTTQPTIQPTQPTTQLPTDSPTQPTTGSFCPGPVTLCSDLESHSTEAVLGDALVDFSLKLYHAFSAMKKVETNMAFSPFSIASLLTQVLLGAGENTKTNLESILSYPKDFTCVHQALKGFTTKGVTSVSQIFHSPDLAIRDTFVNASRTLYSSSPRVLSNNSDANLELINTWVAKNTNNKISRLLDSLPSDTRLVLLNAIYLSAKWKTTFDPKKTRMEPFHFKNSVIKVPMMNSKKYPVAHFIDQTLKAKVGQLQLSHNLSLVILVPQNLKHRLEDMEQALSPSVFKAIMEKLEMSKFQPTLLTLPRIKVTTSQDMLSIMEKLEFFDFSYDLNLCGLTEDPDLQVSAMQHQTVLELTETGVEAAAASAISVARTLLVFEVQQPFLFVLWDQQHKFPVFMGRVYDPRA
notes: also called C1NH; C1 NH
With B1, the binding result in data set [6] is reported as “binds”.

B2: recombinant peptide of the PABD of HABP2: recombinant HABP2 polyanion binding domain, amino acids 110-188 of SEQ ID NO:2 (SEQ ID NO:37) (protein, listed as Homo sapiens)
chain: KVQNTCKDNPCGRGQCLITQSPPYYRCVCKHPYTGPSCSQVVPVCRPNPCQNGATCSRHKRRSKFTCACPDQFKGKFCE
Take B2: the “blocking of HA effects on HABP2 protease activity” value in data set [7] is recorded as “The effects of LMW-HA, but not HMW-HA, were blocked”.
